Source: patent US11261189B2, “Substituted 2,4 diamino-quinoline as new medicament for fibrosis, autophagy and cathepsins B (CTSB), L (CTSL) and D (CTSD) related diseases” (Genoscience Pharma, priority 2018, dated 2022)
Entries after “also recorded” stand apart in the source; their conditions may differ. Where a name gives a salt, the structure may show the parent alone.

Tested on: autophagy flux (LC3-II) in Huh7 cell line
Test: Autophagy flux, LC3-II immunoblot with/without Bafilomycin, Huh7 cell line
Format: cell-based
Details: 4 hours and 24 hours of treatment
Experimental: Since compound 2-3 induced an inhibition of the proteolytic activity of cathepsins B, D and/or L (see example 1) supporting an inhibition of some lysosomal functions which can affect the cellular autophagy flux, the capacity of compound 2-3 to modulate the cellular autophagy processes and functions was evaluated in two Hepatocellular carcinoma (HCC) cell lines: Huh7 and HepG2. For this purpose, the accumulation of LC3-II (Light Chain 3 phosphatidylethanolamine conjugate) in presence or absence of compound 2-3 was analyzed using immunoblot analysis of LC3-II.
The HepG2 cell line was maintained in DMEM low glucose (Cat #21885025, ThermoFischer) containing 1% penicillin-streptomycin (Cat #P06-07100, Dutscher) and 10% FBS (Cat #SV30160.03C, Dutscher). The Huh7 cell line was maintained in DMEM high glucose (Cat #L0103-500, Dutscher) containing 1% penicillin-streptomycin (Cat #P06-07100, Dutscher) and 10% SVF (Cat #SV30160.03C, Dutscher). Cells lines were cultured at 37° C. with 5% CO2.
The day before the experiment, 6-well plates with 250,000 cells for HepG2 and 310,000 cells for Huh7 in 1.8 mL of medium per well were prepared. […]
After 4 hours and 24 hours of cells treatment, the medium was removed from each well. […] Total protein concentration was assessed using the BCA reagent (Cat #23227, ThermoFischer) and cellular lysates were stored at −80° C. until western-blot analysis. […]

CC(C)(C)NC1CCN(c2cc(NCc3ccc(Cl)cc3)nc3ccccc23)CC1 [2-3, 2-(4-chlorobenzylamino)-4-(4-tert-butylaminopiperidin-1-yl)-quinoline Hydrochloride Salt]
accumulation of the LC3-II form: significantly induced, in a dose-dependent manner, an accumulation of the LC3-II form
autophagy flux (LC3-II Baf+/Baf− ratio) (Hydrochloride Salt): inhibition; also recorded: inhibitor of the autophagy flux
